In brackets after ≈: the same amount, converted by molar mass. Read-outs that look alike come from different tables or passages of the source.
Assays:
M. tb H37Rv-GFP [1] = tested on: M. tb H37Rv-GFP; set-up: method as in PMID 19876393; settings: M. tb H37Rv-GFP in broth medium; cited from earlier work
[2] = tested on: M. tb H37Rv-GFP replicating inside Raw264.7 macrophages; set-up: method as in PMID 19876393; settings: Raw264.7 macrophages infected with M. tb H37Rv-GFP; cited from earlier work
[3] = tested on: Raw264.7 murine macrophages; set-up: method as in PMID 19876393; settings: 50% host cell toxicity, Raw264.7 macrophages, read-out: Intracellular macrophage growth CC50, cited from earlier work
M. tb H37Rv-GFP [4] = experiment: microbe, parasite or virus in culture; format: cell-based, Mycobacterium tuberculosis
[5] = tested on: M. tb H37Rv-GFP replicating inside Raw264.7 macrophages; experiment: microbe, parasite or virus in culture; format: cell-based, Mycobacterium tuberculosis; settings: for MIC50: read-out: Intracellular macrophage growth MIC50
in vitro = settings: mouse
M. tb [6] = tested on: M. tb; set-up: method as in PMID 23029536, PMID 27503643, doi:10.1039/C6MD00231E; settings: M. tb growth, inhibitor alone; cited from earlier work
M. tb [7] = tested on: M. tb; set-up: method as in earlier work; settings: combined application with vancomycin; ref 62 (Orlistat), 28 (Lalistat); cited from earlier work
M. tb mc^26230 WT = experiment: microbe, parasite or virus in culture; format: cell-based; settings: REMA
[8] = tested on: M. tb mc^26230-empty vector; experiment: REMA, empty vector strain; format: cell-based, Mycobacterium tuberculosis; settings: Mycobacterium tuberculosis, REMA
[9] = tested on: serine/cysteine enzymes in M. tb mc^26230 lysate; experiment: Competitive ABPP labelling/enrichment with Desthiobiotin-FP (and TAMRA-FP), LC-MS/MS target identification; format: binding, Mycobacterium tuberculosis; settings: lysate pre-incubated with 580 µM inhibitor, 37 °C, 90 min
[10] = Mycobacterium tuberculosis, H37RV, 120 h
[11] = Mycobacterium tuberculosis, H37RV, 120 h, read-out: Extracellular growth MIC50
[12] = read-out: Extracellular growth MIC50

## CO[C@H]1/C=C/O[C@@]2(C)Oc3c(C)c(O)c4c(O)c(c(/C=N/N5CCN(C)CC5)c(O)c4c3C2=O)NC(=O)/C(C)=C\C=C\[C@H](C)[C@H](O)[C@@H](C)[C@@H](O)[C@@H](C)[C@H](OC(C)=O)[C@@H]1C [Rifampicin (RIF), Rifampicin]
M. tb H37Rv-GFP [1]
  Extracellular growth MIC50: 0.01 µM
[2]
  Intracellular macrophage growth MIC50: 2.9 µM
[3]
  CC50: 24 µM

## CCCCCCCCCCCCCCCCOP1(=O)CCCC(C(=O)OC)=C(C)O1 (centres unmarked) [CyC 11]
M. tb H37Rv-GFP [4]
  antibacterial activity against M. tb (in words): non-active

## CCCCCCCCCCCC[C@@H]1CC[P@](=O)(OC)OC(C)=C1C(=O)OC (relative stereo) [CyC 8(α)]
[5]; [10]
  MIC50: 3 to 4 µM (≈ 1.21 to 1.61 µg/mL)
[5]
  MIC50: 4.0 µM (≈ 1.61 µg/mL)
In vitro
  CC50: > 100 µM

## CCCCCCCCCC[C@@H]1CC[P@](=O)(OC)OC(C)=C1C(=O)OC (relative stereo) [CyC 7(α)]
M. tb H37Rv-GFP [4]; [11]
  MIC50: 92.6 µM (≈ 34.7 µg/mL)
[5]; [10]
  MIC50: 4.5 µM (≈ 1.69 µg/mL)
In vitro
  CC50: > 100 µM

## CCCCCCCCCCCCC1CCP(=O)(OC)OC(C)=C1C(=O)OC (stereo not drawn) [CyC 8(β)]
M. tb H37Rv-GFP [4]; [11]
  MIC50: > 100 µM
[5]; [10]
  MIC50: 11.7 µM (≈ 4.71 µg/mL)
In vitro
  CC50: > 20 µM

## CCCCCCCCCCC[C@@H](C[C@@H]1OC(=O)[C@H]1CCCCCC)OC(=O)[C@H](CC(C)C)NC=O [Orlistat]
M. tb [6]
  MIC: 25 to 50 µM
M. tb [7]
  MIC: ~ 6 µM
  MIC drop: 16 fold

## CCCCCCCCCCCCCCCCOP1(=O)CCC(CCCCCCCCCC)C(C(=O)OC)=C(C)O1 (centres unmarked) [CyC 13]
M. tb H37Rv-GFP [4]
  antibacterial activity against M. tb (in words): did not yield any significant antibacterial activity

## CCCCCCCCCCCCCCCCOP1(=O)OC(C)=C(C(=O)OC)CCC1(F)F (centres unmarked) [CyC 14]
M. tb H37Rv-GFP [4]
  antibacterial activity against M. tb (in words): non-active

## CCCCCC1CCP(=O)(OC)OC(C)=C1C(=O)OC (stereo not drawn) [CyC 6(β)]
M. tb H37Rv-GFP [4]
  Extracellular growth MIC50: No effect
[5]; [10]
  MIC50: 12.6 µM (≈ 3.83 µg/mL)
In vitro
  CC50: > 100 µM

## CCCCCCCCCCC1CCP(=O)(OC)OC(C)=C1C(=O)OC (stereo not drawn) [CyC 7(β)]
M. tb H37Rv-GFP [4]; [11]
  MIC50: 16 to 40 µM (≈ 5.99 to 15 µg/mL)
M. tb H37Rv-GFP [4]; [12]
  MIC50: 16.6 µM (≈ 6.22 µg/mL)
[5]; [10]
  MIC50: 3 to 4 µM (≈ 1.12 to 1.5 µg/mL)
[5]
  MIC50: 3.1 µM (≈ 1.16 µg/mL)
In vitro
  CC50: > 100 µM

## CCCCCCCCCCCCCCCCOP1(=O)OCCC(C(=O)OC)=C(C)O1 (centres unmarked) [CyC 17]
M. tb H37Rv-GFP [4]; [11]
  MIC50: 0.5 µM (≈ 0.223 µg/mL)
M. tb H37Rv-GFP [4]; Mycobacterium tuberculosis, H37RV, read-out: Extracellular MIC50
  MIC50: ~0.5 µM (≈ 0.223 µg/mL)
M. tb H37Rv-GFP [4]; [12]
  MIC50: 0.50 µM (≈ 0.223 µg/mL)
[5]
  Intracellular macrophage growth MIC50: No effect
M. tb mc^26230 WT; Mycobacterium tuberculosis, read-out: MIC50
  MIC50: 0.55 ± 0.023 µM (≈ 0.246 µg/mL)
M. tb mc^26230 WT
  MIC50: 0.55 ± 0.023 µM (≈ 0.246 µg/mL)
[8]
  MIC50: 0.52 ± 0.01 µM (≈ 0.232 µg/mL)
[9]
  Effect of pre-treatment on Desthiobiotin-FP labelled bands (SDS-PAGE): decrease in intensity of bands 1, 2 and 8; or disapearance of bands 3-7 and 9
In vitro
  CC50: > 100 µM

## CCCCCCCCCCCCCCCCCCOP1(=O)CCCC(C(=O)OC)=C(C)O1 (centres unmarked) [CyC 12]
M. tb H37Rv-GFP [4]
  antibacterial activity against M. tb (in words): non-active

## CCc1cc(C(N)=S)ccn1 [Ethionamide (ETO), Ethionamide]
M. tb H37Rv-GFP [1]
  Extracellular growth MIC50: 6.0 µM
[2]
  Intracellular macrophage growth MIC50: 6.0 µM
[3]; listed as ethionamide
  CC50: ≥ 120 µM
[3]
  CC50: 120 µM

## CCCCCCCCCCCCCCCCO[P@]1(=O)OC[C@@H]2COC(=O)C2=C(C)O1 [CyC 18(α)]
M. tb H37Rv-GFP [4]; [11]
  MIC50: 24.4 µM (≈ 10.8 µg/mL)
[5]
  Intracellular macrophage growth MIC50: No effect
In vitro
  CC50: > 100 µM

## CCCCCCCCCCCCCCCCO[P@]1(=O)OC[C@H]2COC(=O)C2=C(C)O1 [CyC 18(β), Cyclipostins P]
M. tb H37Rv-GFP [4]; [11]
  MIC50: 1.7 µM (≈ 0.756 µg/mL)
[5]
  Intracellular macrophage growth MIC50: No effect
In vitro
  CC50: > 100 µM

## Lalistat
M. tb [6]
  MIC: 25 to 50 µM
M. tb [7]
  MIC: 6 to 12 µM
  MIC drop: 4 fold

## NNC(=O)c1ccncc1 [Isoniazid (INH), Isoniazid]
M. tb H37Rv-GFP [1]
  Extracellular growth MIC50: 1.2 µM
[2]
  Intracellular macrophage growth MIC50: 1.2 µM
[3]
  CC50: > 150 µM

## MmPPOX
M. tb [6]
  MIC: 25 to 50 µM
